Results on 8 compounds are retold here after ChEMBL document CHEMBL1124500, “New cyclic peptides with cytotoxic activity from the ascidian Lissoclinum patella” (J Med Chem, 1989).

SMILES strings stand for the structures. Values after ≈ are worked out from the molar mass of the structure shown.

What all share (assay type): functional, cell-based
In experiment [1] the test system is L1210. In words: Concentration required to cause 50% inhibition against murine leukemia L1210 cell line; 2-4 ug/mL. The conditions noted are these: Mus musculus.
The subject of experiment [2] is L1210. In words: Concentration required to cause 50% inhibition against murine leukemia L1210 cell line. The settings on record: Mus musculus.
Experiment [3] deals with CCRF-CEM. In words: Concentration required to cause 50% inhibition against human CEM cell lines.
Experiment [4] concerns MRC5CV1. In words: Cytotoxicity of compound was evaluated by incorporation of [methyl-3H]thymidine into MRC5CV1, a control fibroblast cell line, continuous exposure. The settings on record: Homo sapiens.
The test system of experiment [5] is MRC5CV1. In words: Cytotoxicity of compound was evaluated by incorporation of [methyl-3H]thymidine into MRC5CV1, a control fibroblast cell line, for 1 hr exposure. The conditions noted are these: Homo sapiens, MRC5CV1, 1 h.
The test system of experiment [6] is T-24. In words: Cytotoxicity of compound was evaluated by incorporation of [methyl-3H]thymidine into T24, a bladder carcinoma cell line, continuous exposure. The conditions noted are these: Homo sapiens.
In experiment [7] the test system is T-24. In words: Cytotoxicity of compound was evaluated by incorporation of [methyl-3H]thymidine into T24, a bladder carcinoma cell line, for 1 hr exposure. The settings on record: Homo sapiens, T-24, 1 h.

As for `CC[C@H](C)[C@@H]1NC(=O)c2csc(n2)[C@@H](C(C)C)NC(=O)[C@H]2N=C(O[C@@H]2C)[C@H]([C@@H](C)CC)NC(=O)c2csc(n2)[C@@H](C(C)C)NC(=O)[C@@H]2COC1=N2` [PATELLAMIDE A], in experiment [1], the IC50 came to 2 mg/L (≈ 2.69 µM). Take `CC(C)[C@@H]1NC(=O)[C@H]2N=C(O[C@@H]2C)[C@@H]2CCCN2C(=O)[C@H](Cc2ccccc2)NC(=O)c2csc(n2)[C@H](Cc2ccccc2)NC(=O)[C@H]2CSC1=N2`: it took 0.8 mg/L (≈ 1.08 µM) to reach half-maximal inhibition in experiment [2] (IC50).

Take `CC(C)C[C@H]1NC(=O)[C@H]2N=C(O[C@@H]2C)[C@H]2CSSC[C@@H](NC(=O)c3csc1n3)C1=N[C@H](C(=O)N[C@H](CC(C)C)c3nc(cs3)C(=O)N2)[C@@H](C)O1` [ULITHIACYCLAMIDE]: the IC50 in experiment [3] is 0.01 mg/L (≈ 0.0131 µM); in experiment [2] it was 0.35 mg/L (≈ 0.459 µM); in experiment [4], 0.04 mg/L (≈ 0.0524 µM); in experiment [5], 0.22 mg/L (≈ 0.288 µM); in experiment [6], 0.1 mg/L (≈ 0.131 µM); in experiment [7] it was 0.15 mg/L (≈ 0.197 µM).

In experiment [1], `CC[C@H](C)[C@@H]1NC(=O)c2csc(n2)[C@@H](C)NC(=O)[C@H]2N=C(O[C@@H]2C)[C@H](C(C)C)NC(=O)c2csc(n2)[C@@H](Cc2ccccc2)NC(=O)[C@H]2N=C1O[C@@H]2C` [PATELLAMIDE C] came in with a concentration for half-maximal inhibition (IC50) of 2 mg/L (≈ 2.62 µM). Regarding `CC[C@H](C)[C@@H]1NC(=O)c2csc(n2)[C@@H](C)NC(=O)[C@H]2N=C(O[C@@H]2C)[C@H](CC(C)C)NC(=O)c2csc(n2)[C@@H](Cc2ccccc2)NC(=O)[C@H]2N=C1O[C@@H]2C` [PATELLAMIDE B], inhibition in experiment [1] was half-maximal at 2 mg/L (≈ 2.57 µM) (IC50). In the case of `CC[C@@H](C)[C@H]1NC(=O)c2csc(n2)[C@H](C(C)C)NC(=O)[C@H]2N=C(O[C@@H]2C)[C@@H]2CCCN2C(=O)[C@H](Cc2ccccc2)NC(=O)c2csc1n2` [LISSOCLINAMIDE 1], in experiment [2], the IC50 is > 10 mg/L.

As to `CC[C@@H](C)[C@H]1NC(=O)[C@H]2N=C(O[C@@H]2C)[C@@H]2CCCN2C(=O)[C@H](Cc2ccccc2)NC(=O)c2csc(n2)[C@@H](C)NC(=O)C2CSC1=N2` [LISSOCLINAMIDE 2], the IC50 in experiment [2] was > 10 mg/L. For `CC[C@@H](C)[C@H]1NC(=O)[C@H]2N=C(O[C@@H]2C)[C@@H]2CCCN2C(=O)[C@H](Cc2ccccc2)NC(=O)c2csc(n2)[C@H](C)NC(=O)C2CSC1=N2` [LISSOCLINAMIDE 3], in experiment [2], the half-inhibitory concentration (IC50) is > 10 mg/L.
